Reference: patent US12011423B2, “S-alkylisothiouronium derivatives for treating uterine hypercontractility disorders” (FORAVISET LTD., priority 2007, dated 2024)

Legend:
[1] = tested on: women showing abnormal uterine bleeding; test: Effect of vaginal suppositories on abnormal uterine bleeding in women (Example 1); type: in vivo
Experimental: Thirty-six women showing abnormal uterine bleeding were enrolled to this study. Each woman received one suppository of S-ethylisothiouronium diethylphosphate (100 mg of S-ethylisothiouronium diethylphosphate in 2 gr of Suppocire®, a suppository base obtained by esterification of hydrogenated palm oil and hydrogenated palm kelnel oil) per day, applied in the posterior vaginal fornix.

[2] = tested on: Wistar male rats; test: Tail-flick test, pain under thermal stimulation (Example 2); type: in vivo
Experimental: The study was carried out on Wistar male rats (body weight of 210 g). The experiment was carried out on 30 rats divided into 3 groups of 10 animals each. The presence of pain was determined using the Tail-flick test, This method is based on monitoring the reaction time for the typical tail-withdrawal reflex as a result of thermal stimulation. First, the temperature (° C.) at which rat tails was withdrawn was determined, thus identifying the thermal level that caused pain. One hour later, the rats were injected intraperitoneally with S-ethylisothiouronium diethylphosphate in 0.9% NaCl. One group (10 rats) was injected with 5 mg/kg body weigh of S-ethylisothiouronium diethylphosphate, whilst the second and third groups (10 rats each) were injected with 10 and 20 mg/kg body weight, respectively.

[3] = tested on: women suffering from primary or secondary dysmenorrhea; test: Effect of vaginal suppositories on pain in primary or secondary dysmenorrhea (Example 3); type: in vivo
Experimental: Vaginal suppositories containing S-ethylisothiouronium diethylphosphate (100 mg each/day) were applied to 28 women suffering from primary or secondary dysmenorrhea.

[4] = tested on: women patients having primary dysmenorrhea; test: Effect on pelvic pains in women having primary dysmenorrhea (Example 4, group II); type: in vivo; conditions: intravaginal administration
Experimental: Sixty-ninewomen having symptomatic uterine myoma or primary dysmenorrhea were enrolled to this study. The women were treated with vaginal suppositories of S-ethylisothiouronium diethylphosphate (100 mg of S-ethylisothiouronium diethylphosphate in 2 gr of Suppocire® per day, applied in the posterior vaginal fornix).
In addition, the effect of S-ethylisothiouronium diethylphosphate on pelvic pains was evaluated in 38 women patients having primary dysmenorrhea (group II). The average age of the patients was 24.8±4.1 years. All the 38 patients had experienced at least 6 painful menstrual cycles prior to their inclusion in the study. The duration of the menstrual cycle in all cases was normal, i.e., of 21-35 days, with the menstruation lasting 3-7 days. Further, none of the patients was treated with oral contraceptives for at least 6 months before enrollment. The patients were eligible for the study following the confirmation of normal hematological and biochemical indexes and exclusion of antecedent gynecological surgical procedures.
To evaluate the intensity of pain, the patients reported the pain intensity at the beginning of the study, during, and at the termination of the medical management using one of the following terms: absence of pain; greatly diminished pain; slightly diminished pain; similar pain as of the previous treatment; and intensification of pain. […]

[5] = tested on: women with uterine myoma; test: S-ethylisothiouronium bromide in abnormal uterine hemorrhages and pelvic pains associated with uterine myoma (unpublished studies) and comparison; type: in vivo; conditions: found to be preferable over S-ethylisothiouronium bromide
[6] = tested on: women with uterine myoma; conditions: unpublished studies; cited from earlier work
[7] = 24 hours after beginning of treatment, 100 mg/day vaginal suppository, 28 women

## S-ethylisothiouronium diethylphosphate
[1]; after six suppositories (100 mg each), intravaginally, one per day, 36 women
  complete disappearance of pathological uterine bleeding: 87.8 % of cases
[1]; over the course of three consecutive months
  patients reporting menstrual cycles with a normal duration and interval: 94.4%
[1]; patients, vaginal suppositories 100 mg per day
  intensity of bleeding moderately reduced, full haemostatic effect not reached: 12.2%
[1]; vaginal suppositories 100 mg per day
  Haemostasis obtained, on average, time from the start of treatment: 40 to 58 h
[2]; 5 mg/kg intraperitoneal
  increase of thermal level for tail withdrawal: about 21%
[2]; 5 mg/kg intraperitoneal, before injection 73+1.26° C.
  thermal level for tail withdrawal after injection: 89.01+5.11 °C
[2]; 10 mg/kg body weight intraperitoneal
  increase of pain reception level under thermal stimulation: about 31%
[2]; 10 mg/kg body weight intraperitoneal, before injection 73+3.63° C.
  pain reception level under thermal stimulation after injection: 96.4+3.98 °C
[2]; 20 mg/kg body weight intraperitoneal
  increase of pain reception level: 59%
[2]; 20 mg/kg body weight intraperitoneal, before injection 73.5±2.07
  pain reception level after injection: 16.8±9.51 °C
[2]; tail-flick test, 5-20 mg/kg intraperitoneal
  analgesic activity (conclusion in words): potent analgesic agent
[3]; [7]
  complete disappearance of the pain: 39.3%
  significant decrease in the intensity of the pain: 60.7 % of the cases
[3]; 48 hours after beginning of treatment, after a second suppository
  eradication of pain: fully eradicated in all treated women
[4]
  treated women in whom uterine cramps were abrogated: about 95%
[5]
  comparison with S-ethylisothiouronium bromide: longer bioactivity, higher efficacy, and little or no side-effects

## Br.CCSC(=N)N [S-ethylisothiouronium bromide]
[6]
  duration of effect and side effects: short-duration effect accompanied with side effects such as digestive disturbances and complications
  effect on abnormal uterine hemorrhages and pelvic pains: effective in reducing the abnormal uterine hemorrhages and pelvic pains
